The test system of data set [1] is Acetobacter in the insect gut. Put plainly: Remodeling of the gut microbiome in response to pesticide exposure (FIG. 1). The data set is classed as in vivo, Drosophila melanogaster. The settings on record: exposure of flies. On the procedure: (§1) The immediate and long-term responses of the gut microbiome to the top ten most utilized herbicides in the United States are measured using the model organism Drosophila melanogaster. By utilizing both gnotobiotic and wild-type flies in these perturbations, effects specifically due to the microbiome are isolated. Based on the results of the fly model, compounds are tested in mice in pre-adolescent exposure scenarios and long-term effects. As in the fly, genomic and metabolomics techniques are used. Detailed, life course assays throughout 12-week span would provide an extensive map of the dynamic composition of mammalian gut microbiomes. Identification of microbiome chemical and genetic interactions are obtained by utilizing the collaborative cross mice and also specified microbial compositions. Pesticide-induced changes in behavior are correlated with changes in the microbiome, while controlling for genetic background.
AIM 1 Screen 20 most commonly used agricultural pesticides in the United States. Determine which pesticides impact microbiome composition in adult flies, leveraging the viability of germ-free animals and rapid life cycle. Measure the immediate (2 hrs) and long-term (10 days) responses of the microbiome to exposure using methods described below.
1C) 16S-seq and microarray of microbiome before and after perturbation to quantify all microbial species and their transcriptomes. […]

For data set [2], the system named is Drosophila melanogaster. Kind of data set: Host genome-wide transcription response to chronic pesticide exposure (FIGS. 4-5). It is filed as in vivo. The settings on record: 2 mM atrazine. The text has this:
1C) 16S-seq and microarray of microbiome before and after perturbation to quantify all microbial species and their transcriptomes. For treatments with strong effects, sequence the fly gut transcriptome (RNA-seq) to determine gene networks and pathways affected by exposure.

In data set [3] the test system is Drosophila melanogaster. Put plainly: Fly behavioral phenotype after pesticide exposure. The data set is classed as in vivo. The settings on record: exposed flies. The text has this:
1D) Automated behavioral screening in 2D population cages with social affinity, aggression, and mating behavioral quantitative phenotypes. These are ideal because they integrate many aspects of the perturbed animal system, and will allow one skilled in the art to identify subtle neurological phenotypes may be missed by other modalities.
Fly behavioral studies: A 2D cage design with CCD video and fly tracking software is utilized widely by the community (19270697). This techniques enables the automated quantification of social affinity, aggression, and mating behavioral phenotypes.

For data set [4], the system named is Drosophila melanogaster. Kind of data set: Survival of wild-type and gnotobiotic / germ free flies exposed to atrazine (FIGS. 5-6). It is filed as in vivo. On the procedure: as §1
Axenic adult flies are generated and exposures are recapitulated. […] Further, GF flies are fully rescued and wild-type survival curves are restored by feeding flies the bacterial culture prior to exposure. Similar rescue experiments with other microbes are attempted, none of which are rescued.

On to `C[n+]1ccc(-c2cc[n+](C)cc2)cc1` [Paraquat, paraquat], for which the “effect on Acetobacter in the insect gut” value in data set [1] was “induce the collapse of Acetobacter”.
Consider `CCNc1nc(Cl)nc(NC(C)C)n1` [Atrazine, atrazine], for which, in the data set on Drosophila melanogaster [2], the “host response to exposure (transcription)” value was “induces an adaptive response associated largely with the transport of lipids”. Also, the behavioral phenotype induced entry in the data set on Drosophila melanogaster [3] is “induces a hyperactive phenotype”. Moreover, in data set [1], the “effect on Acetobacter in the insect gut” value was “induce the collapse of Acetobacter”. In addition, the “survival of exposed germ free (GF) flies vs control flies with wild-type microbiomes” value with Drosophila melanogaster [4] (axenic adult flies) is reported as “die earlier than control flies”. The “lethality to the host” value in the data set on Drosophila melanogaster [4] (flies, extremely high doses) is given as “not deadly at extremely high doses”. Also, the “susceptibility to toxicity, gnotobiotic flies lacking the atrazine metabolism pathway vs wild-type strains” value in the data set on Drosophila melanogaster [4] (gnotobiotic flies vs wild-type strains having the pathway) is reported as “significantly more susceptible to toxicity”.

The record behind these values is patent US11118160B2, “Probiotic composition for enhancing an insects resistance to a pesticide” (The Regents of the University of California, priority 2017, dated 2021).
